# Laboratory results as given in PubChem BioAssay (NCI).
# Where “and” joins values, the source holds several entries; their conditions need not be identical. Equal entries are not always repeated.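 Dose response: 5 concentrations. Exposure: 48 h. Format: 96-well plates. Endpoint: linear interpolation; highest concentration if not reached. At the GI50, growth is halved. Definition used: TGI = concentration required for complete inhibition of growth.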
# Experiments:
# Assay in all cases: growth of human tumour cells (NCI), 48 h
# [1] = system: EKVX NSCLC
# [2] = system: HT29 colon
# [3] = system: MCF7 breast
# [4] = system: NCI-H23 lung
# [5] = system: OVCAR-4 ovarian
# [6] = system: RPMI-8226 leukemia
# [7] = system: RXF 393 renal
# [8] = system: SK-MEL-2 melanoma
# [9] = system: SK-MEL-5 melanoma
# [10] = system: UO-31 renal
Compound,GI50 [1],TGI [1],GI50 [2],TGI [2],GI50 [3],TGI [3],GI50 [4],TGI [4],GI50 [5],TGI [5],GI50 [6],TGI [6],GI50 [7],TGI [7],GI50 [8],TGI [8],GI50 [9],TGI [9],TGI [10],GI50 [10]
CCN(CC)c1ccc(/C=C2/NC(=O)NC2=O)cc1,0.753 µM,> 100 µM,2.83 µM,> 100 µM,2.84 µM,> 100 µM,7.97 µM,> 100 µM,22.6 µM,> 100 µM,5.34 µM,> 100 µM,4.34 µM,17.5 µM,3.03 µM,> 31.4 µM,3.19 µM,> 74.9 µM,> 100 µM,
CCn1c(-c2nonc2N)nc2c(C#CC(C)(C)O)ncc(OCC3CCNCC3)c21,> 25 µM,> 25 µM,10.4 µM,> 25 µM,6.19 µM,> 25 µM,> 19.2 µM,> 25 µM,> 25 µM,> 25 µM,> 25 µM,> 25 µM,2.54 µM,7.28 µM,11.7 µM,> 25 µM,8.87 µM,> 21.2 µM,18.5 µM,6.42 µM
Fc1ccc(-c2ncn(C3CCNCC3)c2-c2ccnc(Oc3ccc(Oc4ccccc4)cc3)n2)cc1,3.87 µM,7.74 µM,2.13 µM,5.23 µM,3.23 µM,6.9 µM,4.08 µM,7.9 µM,3.78 µM,7.27 µM,4.99 µM,9.91 µM,2.78 µM,6.1 µM,5.03 µM,9.06 µM,3.55 µM,6.82 µM,6.29 µM,2.96 µM
CCCCCCCC(=O)O[C@H]1[C@H]2[C@@H](CC1(C)C)C(=O)[C@]13O[C@H]1C(=O)[C@]1(CO1)[C@]23C,36.9 µM,62.1 µM and 10 µM,,14.4 µM and 14.9 µM,4.99 µM,19.4 µM and 10.5 µM,12.5 µM,28.4 µM and 8.51 µM,2.83 µM,9.2 µM and 9.85 µM,2.95 µM,18.3 µM and 3.34 µM,1.93 µM,3.97 µM and 5.31 µM,22.7 µM,45.5 µM and 8.57 µM,15.3 µM,29.9 µM and 10.5 µM,12.9 µM and 28.2 µM,5.73 µM
O=C(N/N=C\c1cc(Br)cc(Br)c1O)N/N=C/c1cc(Br)cc(Br)c1O,4.09 µM,17.8 µM,5.93 µM,18.3 µM,2.89 µM,12.3 µM,6.21 µM,23.5 µM,2.5 µM,12.9 µM,2.72 µM,10.6 µM,3.57 µM,27.3 µM,11.2 µM,24 µM,1.83 µM,4.69 µM,8.7 µM,1.8 µM
O=C(Nc1ccc(Oc2cccc(Cl)c2)c(Cl)c1)c1cccnc1,3.62 µM,> 50 µM,0.823 µM,6.42 µM,0.597 µM,> 50 µM,3.3 µM,> 50 µM,14.5 µM,> 50 µM,2 µM,> 50 µM,0.927 µM,4.65 µM,2.11 µM,20 µM,1.78 µM,6.92 µM,30 µM,3.63 µM
COC(=O)CCCCCCCCC(=O)c1c(C)[nH]c(/C=C2\N=C(c3ccc[nH]3)C=C2OC)c1C,> 100 µM,> 100 µM,32.4 µM,> 100 µM,64.4 µM,> 100 µM,> 100 µM,> 100 µM,> 85.9 µM,> 100 µM,6.38 µM,> 30.6 µM,31.3 µM,> 100 µM,8.85 µM,> 29.1 µM,1.97 µM,5.67 µM,> 73.6 µM,30.5 µM
COc1cc2cc(C(=O)N3C[C@H](CCl)c4c3cc(O)c3ccccc43)[nH]c2c(OC)c1OC,0.139 µM,0.953 µM and 0.641 µM,2.64 µM,6.82 µM,< 0.01 µM,10.2 µM,< 0.01 µM,0.234 µM and 0.0927 µM,0.0612 µM,2.76 µM and 14.6 µM,< 0.01 µM,,,0.194 µM,,0.461 µM,,0.0439 µM,0.543 µM,
c1ccc(-c2nn(-c3ccccc3)[n+](-c3ccccc3-c3ccccc3)n2)cc1,0.687 µM,> 74.6 µM,0.673 µM,18.4 µM,0.462 µM,11.5 µM,0.683 µM,8.63 µM,0.382 µM,24.5 µM,0.251 µM,5.84 µM,2.02 µM,16.4 µM,1.8 µM,7.69 µM,0.409 µM,2.2 µM,> 77.6 µM,11.6 µM
Nc1ccc(Sc2ccc3c4c2cccc4c(=O)n2c4ccccc4nc32)cc1,,,8.55 µM,73.2 µM,2.71 µM,35.3 µM,5.03 µM,> 100 µM,6.93 µM,28.8 µM,2.5 µM,14.3 µM,6.9 µM,34.5 µM,8.87 µM,65.6 µM,2.92 µM,13.9 µM,18.7 µM,2.43 µM
O=C(O)c1ccccc1/C=C1/Nc2ccccc2C1=O,,> 100 µM,,> 100 µM,,> 100 µM,,> 100 µM,,> 100 µM,,> 100 µM,,> 100 µM,,> 100 µM,,,> 100 µM,
COc1ccc(C2C3=C(COC3=O)N(CCO)c3cc4c(cc32)CCC4)cc1OC (stereo not given),2.95 µM,> 50 µM,0.62 µM,> 10.3 µM,0.176 µM,> 50 µM,1.36 µM,> 50 µM,0.901 µM,> 50 µM,2.64 µM,> 50 µM,0.207 µM,,,,0.246 µM,> 50 µM,> 50 µM,1.13 µM
CCN(CC)Cc1cc(Nc2c3ccc(Cl)cc3nc3c(C)cccc23)ccc1O,1.86 µM,3.98 µM,0.888 µM,2.42 µM,1 µM,2.32 µM,1.65 µM,3.22 µM,1.53 µM,2.97 µM,,,1.3 µM,2.63 µM,1.94 µM,3.73 µM,1.76 µM,3.15 µM,2.27 µM,1.06 µM
